Assay results: patent US20230257354A1, “NOVEL HETEROCYCLIC COMPOUNDS” (Hoffmann-La Roche Inc., priority 2020, published 2023)
Where a name gives a salt, the structure may show the parent alone.

Test system: Acinetobacter baumannii ATCC17978
Experiment: Antimicrobial susceptibility testing, 90% growth inhibitory concentration (IC90) determination, ATCC17978
Format: cell-based
Conditions: Iso-Sensitest broth, OD 600 nm over 16 h, 35±2° C., read-out: ATCC 17978 IC90
Method: Antimicrobial Susceptibility Testing: 90% Growth Inhibitory Concentration (IC90) Determination The in vitro antimicrobial activity of the compounds was determined according to the following procedure: The assay used a 10-points Iso-Sensitest broth medium to measure quantitatively the in vitro activity of the compounds against Acinetobacter baumannii ATCC17978 or ATCC17961. Stock compounds in DMSO were serially twofold diluted (e.g. range from 50 to 0.097 μM final concentration) in 384 wells microtiter plates and inoculated with 49 μl the bacterial suspension in Iso-Sensitest medium to have a final cell concentration of ˜5×10^(5) CFU/ml in a final volume/well of 50 ul/well. Microtiter plates were incubated at 35±2° C. Bacterial cell growth was determined with the measurement of optical density at X=600 nm each 20 minutes over a time course of 16 h. Growth inhibition was calculated during the logarithmic growth of the bacterial cells with determination of the concentration inhibiting 50% (IC50) and 90% (IC90) of the growth. Table 1 provides the 90% growth inhibitory concentrations (IC90) in micromoles per liter of the compounds of present invention obtained against the strain Acinetobacter baumannii ATCC17978.

Structure (SMILES) | IC90
COc1ccc(-c2cnc(C(=O)Nc3ccc(C(=O)N[C@H]4C[C@@H](NC(=O)C5C[C@@H](O)CN5)C4)c(Cl)c3)n2C)c(F)c1F (stereo in doubt) [Example B38, N-[3-chloro-4-[[3-[[(4R)-4-hydroxypyrrolidine-2-carbonyl]amino]cyclobutyl]carbamoyl]phenyl]-5-(2,3-difluoro-4-methoxy-phenyl)-1-methyl-imidazole-2-carboxamide;formic acid] | 0.055 µM
Cn1c(-c2ccc(OCC#N)c(F)c2F)cnc1C(=O)Nc1ccc(C(=O)NCCOCCN)c(Cl)c1 [Example A9, N-[4-[2-(2-aminoethoxy)ethylcarbamoyl]-3-chloro-phenyl]-5-[4-(cyanomethoxy)-2,3-difluoro-phenyl]-1-methyl-imidazole-2-carboxamide;formic acid] | 0.25 µM
Cn1c(-c2ccc(OCC#N)c(F)c2F)cnc1C(=O)Nc1ccc(C(=O)NCCN2CCNCC2)c(Cl)c1 [Example A10, N-[3-chloro-4-(2-piperazin-1-ylethylcarbamoyl)phenyl]-5-[4-(cyanomethoxy)-2,3-difluoro-phenyl]-1-methyl-imidazole-2-carboxamide;2,2,2-trifluoroacetic acid] | 0.36 µM
Cc1cc(NC(=O)c2ncc(-c3ccc(OCC#N)c(F)c3F)n2C)ccc1C(=O)NCCCN1CCNCC1 [Example A12, 5-[4-(cyanomethoxy)-2,3-difluoro-phenyl]-1-methyl-N-[3-methyl-4-(3-piperazin-1-ylpropylcarbamoyl)phenyl]imidazole-2-carboxamide;2,2,2-trifluoroacetic acid] | 0.34 µM
CCc1cc(NC(=O)c2ncc(-c3ccc(OC)c(F)c3F)n2C)ccc1C(=O)NCCOCCN [Example A13, N-[4-[2-(2-aminoethoxy)ethylcarbamoyl]-3-ethyl-phenyl]-5-(2,3-difluoro-4-methoxy-phenyl)-1-methyl-imidazole-2-carboxamide;formic acid] | 0.59 µM
CCc1cc(NC(=O)c2ncc(-c3ccc(OC(F)F)cc3)n2C)ccc1C(=O)NCCOCCN [Example A14, N-[4-[2-(2-aminoethoxy)ethylcarbamoyl]-3-ethyl-phenyl]-5-[4-(difluoromethoxy)phenyl]-1-methyl-imidazole-2-carboxamide;hydrochloride] | 3 µM
CCc1cc(NC(=O)c2ncc(-c3ccc(OC(C)C)c(F)c3)n2C)ccc1C(=O)NCCOCCN [Example A15, N-[4-[2-(2-aminoethoxy)ethylcarbamoyl]-3-ethyl-phenyl]-5-(3-fluoro-4-isopropoxy-phenyl)-1-methyl-imidazole-2-carboxamide;hydrochloride] | 4.5 µM
CCc1cc(NC(=O)c2ncc(-c3ccc(OC)cc3Cl)n2C)ccc1C(=O)NCCOCCN [Example A16, N-[4-[2-(2-aminoethoxy)ethylcarbamoyl]-3-ethyl-phenyl]-5-(2-chloro-4-methoxy-phenyl)-1-methyl-imidazole-2-carboxamide;hydrochloride] | 1.5 µM
CCc1cc(NC(=O)c2ncc(-c3ccc(OC(F)F)c(F)c3F)n2C)ccc1C(=O)NCCOCCN [Example A17, N-[4-[2-(2-aminoethoxy)ethylcarbamoyl]-3-ethyl-phenyl]-5-[4-(difluoromethoxy)-2,3-difluoro-phenyl]-1-methyl-imidazole-2-carboxamide;hydrochloride] | 0.4 µM
CCc1cc(NC(=O)c2ncc(-c3ccc(OCC(N)=O)c(F)c3F)n2C)ccc1C(=O)NCCOCCN [Example A21, N-[4-[2-(2-aminoethoxy)ethylcarbamoyl]-3-ethyl-phenyl]-5-[4-(2-amino-2-oxo-ethoxy)-2,3-difluoro-phenyl]-1-methyl-imidazole-2-carboxamide;hydrochloride] | 4.7 µM
CCc1cc(NC(=O)c2ncc(-c3ccc(OCC#N)c(F)c3Cl)n2C)ccc1C(=O)NCCOCCN [Example A22, N-[4-[2-(2-aminoethoxy)ethylcarbamoyl]-3-ethyl-phenyl]-5-[2-chloro-4-(cyanomethoxy)-3-fluoro-phenyl]-1-methyl-imidazole-2-carboxamide;hydrochloride] | 0.18 µM

The next lines start with the values.

IC90 | Structure (SMILES)
0.24 µM | COc1ccc(-c2cnc(C(=O)Nc3ccc(C(=O)NCCOCCN)c(Cl)c3)n2C)c(F)c1F [Example A1, N-[4-[2-(2-Aminoethoxy)ethylcarbamoyl]-3-chloro-phenyl]-5-(2,3-difluoro-4-methoxy-phenyl)-1-methyl-imidazole-2-carboxamide]
0.61 µM | COc1ccc(-c2cnc(C(=O)Nc3ccc(C(=O)NCCN4CCNCC4)c(Cl)c3)n2C)c(F)c1F [Example A2, N-[3-chloro-4-(2-piperazin-1-ylethylcarbamoyl)phenyl]-5-(2,3-difluoro-4-methoxy-phenyl)-1-methyl-imidazole-2-carboxamide]
0.31 µM | COc1ccc(-c2cnc(C(=O)Nc3ccc(C(=O)NC4CCNC4)c(Cl)c3)n2C)c(F)c1F (centres unmarked) [Example A3, N-[3-chloro-4-(pyrrolidin-3-ylcarbamoyl)phenyl]-5-(2,3-difluoro-4-methoxy-phenyl)-1-methyl-imidazole-2-carboxamide;formic acid]
0.44 µM | COc1ccc(-c2cnc(C(=O)Nc3ccc(C(=O)NC4CCNCC4)c(Cl)c3)n2C)c(F)c1F [Example A4, N-[3-chloro-4-(4-piperidylcarbamoyl)phenyl]-5-(2,3-difluoro-4-methoxy-phenyl)-1-methyl-imidazole-2-carboxamide;formic acid]
0.55 µM | COc1ccc(-c2cnc(C(=O)Nc3ccc(C(=O)NCC4CCNCC4)c(Cl)c3)n2C)c(F)c1F [Example A5, N-[3-chloro-4-(4-piperidylmethylcarbamoyl)phenyl]-5-(2,3-difluoro-4-methoxy-phenyl)-1-methyl-imidazole-2-carboxamide;formic acid]
0.15 µM | COc1ccc(-c2cnc(C(=O)Nc3ccc(C(=O)NCCCCCCN)c(Cl)c3)n2C)c(F)c1F [Example A6, N-[4-(6-aminohexylcarbamoyl)-3-chloro-phenyl]-5-(2,3-difluoro-4-methoxy-phenyl)-1-methyl-imidazole-2-carboxamide]
0.24 µM | COc1ccc(-c2cnc(C(=O)Nc3ccc(C(=O)NCC4CC(CN)C4)c(Cl)c3)n2C)c(F)c1F (centres unmarked) [Example A7, N-[4-[[3-(aminomethyl)cyclobutyl]methylcarbamoyl]-3-chloro-phenyl]-5-(2,3-difluoro-4-methoxy-phenyl)-1-methyl-imidazole-2-carboxamide;formic acid]
0.5 µM | COc1ccc(-c2cnc(C(=O)Nc3ccc(C(=O)NCC4CC(N)C4)c(Cl)c3)n2C)c(F)c1F (centres unmarked) [Example A8, N-[4-[(3-aminocyclobutyl)methylcarbamoyl]-3-chloro-phenyl]-5-(2,3-difluoro-4-methoxy-phenyl)-1-methyl-imidazole-2-carboxamide;formic acid]
0.31 µM | Cn1c(-c2ccc(OCC#N)c(F)c2F)cnc1C(=O)Nc1ccc(C(=O)NCCCN2CCNCC2)c(Cl)c1 [Example A11, N-[3-chloro-4-(3-piperazin-1-ylpropylcarbamoyl)phenyl]-5-[4-(cyanomethoxy)-2,3-difluoro-phenyl]-1-methyl-imidazole-2-carboxamide;2,2,2-trifluoroacetic acid]
1.2 µM | CCc1cc(NC(=O)c2ncc(-c3c(F)cc(OC)cc3F)n2C)ccc1C(=O)NCCOCCN [Example A18, N-[4-[2-(2-aminoethoxy)ethylcarbamoyl]-3-ethyl-phenyl]-5-(2,6-difluoro-4-methoxy-phenyl)-1-methyl-imidazole-2-carboxamide;hydrochloride]
1.4 µM | Cn1c(-c2ccc(OC(F)F)c(F)c2F)cnc1C(=O)Nc1ccc(C(=O)NCCCN)c(Cl)c1 [Example A19, N-[4-(3-Aminopropylcarbamoyl)-3-chloro-phenyl]-5-[4-(difluoromethoxy)-2,3-difluoro-phenyl]-1-methyl-imidazole-2-carboxamide]
0.96 µM | CCc1cc(NC(=O)c2ncc(-c3ccc(OCC#N)c(F)c3F)n2C)ccc1C(=O)NCCOCCN [Example A20, N-[4-[2-(2-aminoethoxy)ethylcarbamoyl]-3-ethyl-phenyl]-5-[4-(cyanomethoxy)-2,3-difluoro-phenyl]-1-methyl-imidazole-2-carboxamide;hydrochloride]
0.22 µM | COc1ccc(-c2cnc(C(=O)Nc3ccc(C(=O)NC4CCN(C(=O)CN(C)C)C4)c(Cl)c3)n2C)c(F)c1F (centres unmarked) [Example A23, N-[3-Chloro-4-[[1-[2-(dimethylamino)acetyl]pyrrolidin-3-yl]carbamoyl]phenyl]-5-(2,3-difluoro-4-methoxy-phenyl)-1-methyl-imidazole-2-carboxamide]
0.67 µM | COc1ccc(-c2cnc(C(=O)Nc3ccc(C(=O)NCCNC(=O)CN(C)C)c(Cl)c3)n2C)c(F)c1F [Example A24, N-[3-chloro-4-[2-[[2-(dimethylamino)acetyl]amino]ethylcarbamoyl]phenyl]-5-(2,3-difluoro-4-methoxy-phenyl)-1-methyl-imidazole-2-carboxamide;2,2,2-trifluoroacetic acid]
0.13 µM | COc1ccc(-c2cnc(C(=O)Nc3ccc(C(=O)NC4CCN(C(=O)CN(C)C)CC4)c(Cl)c3)n2C)c(F)c1F [Example A25, N-[3-chloro-4-[[1-[2-(dimethylamino)acetyl]-4-piperidyl]carbamoyl]phenyl]-5-(2,3-difluoro-4-methoxy-phenyl)-1-methyl-imidazole-2-carboxamide]
